Test results: article PMC9486805, “Identification of a Phage Display-Derived Peptide Interacting with the N-Terminal Region of Factor VII Activating Protease (FSAP) Enables Characterization of Zymogen Activation” (ACS Chemical Biology, 2022)
Each block holds one molecule with its values, some of them ahead of it. Bridge positions count the residues as written; N and C are the ends. Ends that are not written are not given here.

Columns and labels:
[1] = target: T1, pro-FSAP in human plasma (Homo sapiens, UniProt Q14520); settings: NNKC9/41; cited from earlier work
T1 construct: from tissue; host or cells: human hirudin or citrate plasma from healthy donors, diluted 1:12
T1 sequence (Q14520 24-560): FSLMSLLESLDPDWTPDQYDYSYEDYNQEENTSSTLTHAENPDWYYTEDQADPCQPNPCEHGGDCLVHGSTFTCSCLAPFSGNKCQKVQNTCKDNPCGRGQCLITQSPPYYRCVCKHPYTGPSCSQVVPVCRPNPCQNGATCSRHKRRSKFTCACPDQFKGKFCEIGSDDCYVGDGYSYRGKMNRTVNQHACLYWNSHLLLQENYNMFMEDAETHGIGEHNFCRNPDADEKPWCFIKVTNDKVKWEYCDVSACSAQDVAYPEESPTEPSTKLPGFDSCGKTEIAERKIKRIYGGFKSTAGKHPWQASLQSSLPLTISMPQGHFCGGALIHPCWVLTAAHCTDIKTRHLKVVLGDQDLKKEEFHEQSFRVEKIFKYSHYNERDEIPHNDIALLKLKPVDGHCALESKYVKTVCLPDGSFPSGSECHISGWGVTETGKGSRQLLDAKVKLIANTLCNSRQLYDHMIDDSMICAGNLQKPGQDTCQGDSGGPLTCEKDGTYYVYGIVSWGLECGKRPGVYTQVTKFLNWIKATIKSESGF
Description: The contact pathway of blood coagulation is activated by negatively charged surfaces,[44] and we also tested whether it was involved in any way in the pro-FSAP activation process. […] The kallikrein inhibitor PKS1-527 had no effect,[43] but aprotinin, a general serine protease inhibitor, blocked pro-FSAP activation/activ ...

[2] = target: T1, pro-FSAP in human plasma; experiment: Activation of endogenous pro-FSAP in plasma, fluorogenic substrate turnover; assay type: biochemical
Experimental: Human citrate plasma (0.38% w/v) or hirudin plasma (25 μg/mL Lepirudin) was obtained from five healthy donors. Plasma was diluted at 1:12 and mixed with various test substances that potentially activate or inhibit pro-FSAP. Ac–Ala–Lys–Nle–Arg–AMC (amino–methyl–coumarin) was used as a sensitive and specific substrate for FSAP.[35] Hydrolysis of the fluorogenic substrates was measured using a Synergy HI plate reader with excitation at 320 nm and emission at 460 nm at 37 °C for 60 min. The maximal velocity was calculated from the linear part of the progress curve. In limited experiments, the second-generation fluorogenic FSAP substrate (Ac–Pro–DTyr–Lys–Arg–AMC)[34] was used. Pro-uPA activation, formation of FSAP−α2-antiplasmin, and western blotting with anti-FSAP antibodies were also used to monitor pro-FSAP activation.

[3] = target: T2, pro-FSAP purified from human plasma (Homo sapiens, UniProt Q14520); experiment: Pro-FSAP activation assay, purified pro-FSAP, chromogenic substrate S-2288; assay type: biochemical
T2 construct: Pro-FSAP was isolated from human plasma as described before; from tissue; host or cells: human plasma
T2 sequence (Q14520 24-560): as above
Experimental: Figure 1 Isolation of pro-FSAP binding peptides and their activity: (A) strategy to isolate high-affinity phages from the NNKC9 and NNK11 libraries that bind to pro-FSAP. To select for strong binders, an excess of free pro-FSAP protein was used for competitive elution of low-affinity binders. High-affinity binders retained on the beads were analyzed further. The sequences of major positive clones identified through an ELISA-based binding assay from the NNKC9 and NNK11 libraries are shown. (B) NNK11/189 and scrambled controls (0–50 μM) and histones (0–50 μg/mL) were added to purified pro-FSAP (1.0 μg/mL) and the turnover of the chromogenic substrate S-2288 (200 μM) was measured. (C) NNKC9/41 was compared to a peptide that was synthetically monocyclized (Cys–Cys cyclic), a peptide with Ser residues instead of Cys at both ends (Ser–Ser linear), a peptide with Ser residues at the end cyclized head to tail (Ser–Ser cyclic), and a scrambled peptide in a pro-FSAP activation assay. (D) Hirudin plasma (1:12 dilution) was incubated with histones (25 μg/mL), NNKC9/41, or Ser–Ser linear control (each, 25 μM), the fluorogenic substrate turnover (Ac–Ala–Lys–Nle–Arg–AMC) was monitored in duplicate wells, and results from a single well are shown. In panels (B) and (C), results are shown as mean + range (duplicate wells). Results were replicated with five different batches of NNKC9/41 (panels (B) and (C)).
Pro-FSAP was isolated from human plasma as described before.[14] The content of the zymogen form varied from 50% to 90% due to autoactivation during the purification process. Histones, isolated from the calf thymus, were obtained from Sigma-Aldrich (Oslo, Norway). FSAP activity assays were performed as described previously.[51] In brief, microtiter wells were blocked with TBS (25 mM Tris–HCl, pH 7.5, and 150 mM NaCl) containing 3% (w/v) BSA for 1 h and washed with TBS-T. The standard assay consisted of TBS-T with 0.3% (w/v) BSA and CaCl2 (2 mM) 1 μg/mL (15 nM) plasma purified pro-FSAP and 250 μM chromogenic substrate S-2288 (D-Ile-L-Pro-L-Arg-p-nitroaniline dihydrochloride) (Haemochrome Diagnostica, Essen, Germany) and was followed at 37 °C at 405 nm in a microplate reader Synergy HI plate reader (BioTek Instruments, Winooski). In some experiments, a fluorescent substrate of FSAP[35] was used.

[4] = tested on: purified pro-FSAP; settings: heparin ref 13, 14; nucleic acids ref 15, 16; dextran sulfate ref 13; cited from earlier work
Description: This leads to cleavag ...

[5] = tested on: EGF3 domain of FSAP; settings: cited from earlier work
Description: To identify the domain of FSAP responsible for binding to NNKC9/41, we expressed various domain deletion mutants of pro-FSAP as His-tagged proteins in E. coli as described before.[36] The N-terminus of pro- FSAP (heavy chain) consists of the intrinsically disordered N-terminal region (NTR), three EGF domains, and a kringle domain, whereas the C-terminal-light chain contains the serine protease domain (SPD) (Figure 2C). […] The recombinant proteins (Figure 2D) were captured on polyclonal FSAP an ...

[6] = hirudin plasma, Ac–Pro–DTyr–Lys–Arg–AMC (Fig S3)

Molecule: Cl.NCC1CCC(C(=O)N[C@@H](Cc2ccccc2)C(=O)Nc2ccc(CC(=O)O)cc2)CC1 (stereo partly shown) [PKS1-527]
effect of kallikrein inhibitor [1]: had no effect

presence in HPLC fractions active in pro-FSAP activation ([2]; RP-HPLC fractions of NNKC9/41 tested in hirudin plasma, LC–MS (Fig S1)): found in all of the active fractions
maximal activity vs NNKC9/41 [2, 6]: slightly lower
Molecule: CRGAMWMYKRC (disulfide 1-11 (inferred)) [cyclic dimer, antiparallel cyclic dimer of NNKC9/41 through terminal Cys groups]
activity at higher concentrations [2, 6]: pronounced decrease in activity at higher concentrations

EC50 ([3]; purified pro-FSAP activation, S-2288, linear synthetic peptide stored under oxidative conditions, five batches): 8 to 15 µM
Molecule: CRGAMWMYKRC (not fully specified (N-terminus); also: oxidation gives mixture of Cys1-Cys11 monocycle and disulfide-linked antiparallel dimers) [NNKC9/41]

Molecule: IDCLMQNAGSA [NNK11/189]
effect on pro-FSAP activation ([3]; purified pro-FSAP 1.0 μg/mL, peptides 0–50 μM, histones 0–50 μg/mL, S-2288 (200 μM in legend b10, 250 μM in method b60), 37 °C, 405 nm, duplicate wells): did not have any effect on pro-FSAP activation

effect of inhibitor on pro-FSAP activation by the peptide ([2]; hirudin plasma 1:12, NNKC9/41 25 μM, CTI 80 μg/mL, aprotinin 100 μg/mL, MA-570 20 μg/mL, read-outs of Fig 4D–F (MA-FSAP-570 only Fig 4D,E)): blocked pro-FSAP activation/activity
Molecule: aprotinin [reference compound]

Molecule: dextran sulfate
activation of purified pro-FSAP [4]: activate purified pro-FSAP

Molecule: heparin
binding to the EGF3 domain [5]: binds to the EGF3 domain
activation of purified pro-FSAP [4]: activate purified pro-FSAP
